Measurements as given in patent publication US5041567A, “Antibacterial monic acid derivatives” (Beecham Group plc, priority 1982, dated 1991).
Values after ≈ are worked out from the molar mass of the structure shown. Read-outs that look alike come from different tables or passages of the source.

Columns and labels:
M. suipneumoniae NB12 = assay: MIC against mycoplasma in vitro; assay type: cell-based; settings: Mesomycoplasma hyopneumoniae
M. suipneumoniae Str. 11 = assay: MIC against mycoplasma in vitro; assay type: cell-based; settings: Mesomycoplasma hyopneumoniae
[1] = tested on: M. suipneumoniae PW/C/210; assay: MIC against mycoplasma in vitro; assay type: cell-based; settings: Mesomycoplasma hyopneumoniae, 144 h
M. suipneumoniae UCD 1 = assay: MIC against mycoplasma in vitro; assay type: cell-based; settings: Mesomycoplasma hyopneumoniae, UCD1, 144 h
M. bovis NCTC 10131 = assay: microbe, parasite or virus in culture; assay type: cell-based; settings: NCTC10131, 144 h
[2] = tested on: M. bovigenitalium ATCC 14173; assay: MIC against mycoplasma in vitro; assay type: cell-based; settings: 144 h
M. gallisepticum S6 = assay: MIC against mycoplasma in vitro; assay type: cell-based; settings: Mycoplasmoides gallisepticum
E. coli NCTC 10418 [3] = assay: MIC against human bacteria in vitro; assay type: cell-based; settings: Escherichia coli, NCTC10418; E. coli NCTC 10418; agar with 5% chocolated horse blood, 18 hours, 37° C.; read-out: MIC
[4] = tested on: Ps. aeruginosa NCTC 10662; assay: MIC against human bacteria in vitro; assay type: cell-based; settings: Pseudomonas aeruginosa, NCTC10662; Ps. aeruginosa NCTC 10662; 5% chocolated horse blood agar, 18 hours; read-out: MIC
[5] = tested on: Haemophilus influenzae Wy21; assay: MIC against human bacteria in vitro; assay type: cell-based
[6] = tested on: Corynebacterium xerosis 9755; assay: MIC against human bacteria in vitro; assay type: cell-based; settings: Corynebacterium xerosis 9755; 5% chocolated horse blood agar, 18 hours; read-out: MIC
Strep. agalactiae 2788-B = assay: MIC against human bacteria in vitro; assay type: cell-based; settings: Streptococcus agalactiae; Strep. agalactiae 2788-B; 5% chocolated horse blood agar, 18 hours; read-out: MIC
E. coli NCTC 10418 [7] = assay: MIC against veterinary bacteria in vitro; settings: Escherichia coli, NCTC10418, 18 h
Method: (§1) The activity of the compounds of the Examples against various veterinarily important bacteria, was assayed in vitro using two-fold serial dilutions in Diagnostic Sensitivity Test Agar inoculated with 10^4 organisms.

S. dublin S7 = assay: MIC against veterinary bacteria in vitro; settings: Salmonella enterica, S7, 18 h
Method: as §1

Bord. bronchiseptica B09 = assay: MIC against veterinary bacteria in vitro; settings: Bordetella bronchiseptica, B09, 18 h
Method: as §1

Past. multocida PA1 = assay: MIC against veterinary bacteria in vitro; settings: Pasteurella multocida, PA1, 18 h
Method: as §1

Past. haemolytica PA5 = assay: MIC against veterinary bacteria in vitro; settings: Mannheimia haemolytica, PA5, 18 h
Method: as §1

[8] = tested on: Erysipelothrix rhusiopathiae NCTC 8163; assay: MIC against veterinary bacteria in vitro; settings: Erysipelothrix rhusiopathiae, NCTC8163, 18 h
Method: as §1

[9] = tested on: Corynebacterium pyogenes CY1; assay: MIC against veterinary bacteria in vitro; settings: CY1, 18 h
Method: as §1

Staph. aureus Oxford = assay: MIC against veterinary bacteria in vitro; settings: Staphylococcus aureus, 18 h
Method: as §1

Strep. dysgalactiae SPD1 = assay: MIC against veterinary bacteria in vitro; settings: Streptococcus dysgalactiae, SPD1, 18 h
Method: as §1

Strep. agalactiae SPA1 = assay: MIC against veterinary bacteria in vitro; settings: Streptococcus agalactiae, SPA1, 18 h
Method: as §1

B. subtilis ATCC 6633 = assay: MIC against veterinary bacteria in vitro; settings: Bacillus subtilis, ATCC6633, 18 h
Method: as §1

[10] = 144 h, M. suipneumoniae NB12, Friis broth, 0.9% agarose, 6 days, 37° C., read-out: MIC
[11] = 144 h, M. suipneumoniae Str. 11, 6 days, 37° C., read-out: MIC
[12] = M. suipneumoniae PW/C/210, 6 days, 37° C., read-out: MIC
[13] = Haemophilus influenzae Wy21, 5% chocolated horse blood agar, 18 hours, read-out: MIC

Compound	MIC (M. suipneumoniae Str. 11; [11]) [µg/mL]	MIC [1, 12] [µg/mL]	MIC (M. suipneumoniae UCD 1) [µg/mL]	MIC (M. bovis NCTC 10131) [µg/mL]	MIC [2] [µg/mL]	MIC (E. coli NCTC 10418 [3]) [µg/mL]	MIC [4] [µg/mL]	MIC [6] [µg/mL]	MIC (Strep. agalactiae 2788-B) [µg/mL]	MIC (E. coli NCTC 10418 [7]) [µg/mL]	MIC (S. dublin S7) [µg/mL]	MIC (Bord. bronchiseptica B09) [µg/mL]	MIC (Past. multocida PA1) [µg/mL]	MIC (Past. haemolytica PA5) [µg/mL]	MIC [8] [µg/mL]	MIC [9] [µg/mL]	MIC (Staph. aureus Oxford) [µg/mL]	MIC (Strep. dysgalactiae SPD1) [µg/mL]	MIC (Strep. agalactiae SPA1) [µg/mL]	MIC (B. subtilis ATCC 6633) [µg/mL]	other results
C/C(=C\c1ncc(-c2ccsc2)o1)C[C@@H]1OC[C@H](C[C@@H]2O[C@H]2[C@@H](C)[C@H](C)O)[C@@H](O)[C@H]1O [Example 20, 5-(3-Thienyl)-2-(1-normon-2-yl) oxazole A]	0.5 (≈ 1.11 µM)	0.5 (≈ 1.11 µM)	1 (≈ 2.22 µM)	≤ 0.01	0.05 (≈ 0.111 µM)	> 128	> 128	> 128	2 (≈ 4.45 µM)	> 80	> 80	10 (≈ 22.2 µM)	2.5 (≈ 5.56 µM)	80 (≈ 178 µM)	80 (≈ 178 µM)	> 80	2.55 (≈ 5.67 µM)	0.625 (≈ 1.39 µM)	1.25 (≈ 2.78 µM)	10 (≈ 22.2 µM)	MIC (M. suipneumoniae NB12; [10]): 0.5 µg/mL (≈ 1.11 µM); MIC (M. gallisepticum S6; S6, 144 h): 2.5 µg/mL (≈ 5.56 µM); MIC ([5]; Haemophilus influenzae, WY21, 18 h): 0.5 µg/mL (≈ 1.11 µM)
C/C(=C\c1ncc(-c2ccc(C#N)cc2)o1)C[C@@H]1OC[C@H](C[C@@H]2O[C@H]2[C@@H](C)[C@H](C)O)[C@@H](O)[C@H]1O [Example 21, 5-p-Cyanophenyl-2-(1-normon-2-yl) oxazole A]	–	–	0.25 (≈ 0.534 µM)	0.025 (≈ 0.0534 µM)	0.05 (≈ 0.107 µM)	> 128	> 128	> 128	4 (≈ 8.54 µM)	> 80	> 80	10 (≈ 21.3 µM)	2.5 (≈ 5.34 µM)	20 (≈ 42.7 µM)	40 (≈ 85.4 µM)	> 80	2.5 (≈ 5.34 µM)	0.625 (≈ 1.33 µM)	1.25 (≈ 2.67 µM)	2.5 (≈ 5.34 µM)	MIC (M. suipneumoniae NB12; NB12, 144 h): 0.25 µg/mL (≈ 0.534 µM); MIC (M. suipneumoniae Str. 11; STR.11, 144 h): 0.25 µg/mL (≈ 0.534 µM); MIC [1]: 0.25 µg/mL (≈ 0.534 µM); MIC (M. gallisepticum S6; S6, 144 h): 0.25 µg/mL (≈ 0.534 µM); MIC [5, 13]: 2 µg/mL (≈ 4.27 µM)
CSc1cccc(-c2cnc(/C=C(\C)C[C@@H]3OC[C@H](C[C@@H]4O[C@H]4[C@@H](C)[C@H](C)O)[C@@H](O)[C@H]3O)o2)c1 [Example 22, 5-m-Methylthiophenyl-2-(1-normon-2-yl)oxazole A]	0.5 (≈ 1.02 µM)	0.5 (≈ 1.02 µM)	1 (≈ 2.04 µM)	0.05 (≈ 0.102 µM)	0.1 (≈ 0.204 µM)	> 128	> 128	> 128	16 (≈ 32.7 µM)	> 80	> 80	40 (≈ 81.7 µM)	20 (≈ 40.8 µM)	80 (≈ 163 µM)	80 (≈ 163 µM)	> 80	2.5 (≈ 5.11 µM)	1.25 (≈ 2.55 µM)	10 (≈ 20.4 µM)	0.625 (≈ 1.28 µM)	MIC (M. suipneumoniae NB12; NB12, 144 h): 1 µg/mL (≈ 2.04 µM); MIC (M. gallisepticum S6; 144 h, M. gallisepticum S6, 6 days, 37° C., read-out: MIC): 5 µg/mL (≈ 10.2 µM); MIC [5, 13]: 4 µg/mL (≈ 8.17 µM)
C/C(=C\c1ncc(-c2cccc(S(C)(=O)=O)c2)o1)C[C@@H]1OC[C@H](C[C@@H]2O[C@H]2[C@@H](C)[C@H](C)O)[C@@H](O)[C@H]1O [Example 23, 5-m-Methylsulphonylphenyl-2-(1-normon-2-yl) oxazole A]	0.5 (≈ 0.959 µM)	0.5 (≈ 0.959 µM)	1 (≈ 1.92 µM)	0.025 (≈ 0.0479 µM)	0.1 (≈ 0.192 µM)	> 64	> 64	> 128	2 (≈ 3.83 µM)	> 80	> 80	40 (≈ 76.7 µM)	5 (≈ 9.59 µM)	80 (≈ 153 µM)	> 80	> 80	10 (≈ 19.2 µM)	1.25 (≈ 2.4 µM)	2.5 (≈ 4.79 µM)	1.25 (≈ 2.4 µM)	MIC (M. suipneumoniae NB12; [10]): 0.5 µg/mL (≈ 0.959 µM); MIC (M. gallisepticum S6; S6, 144 h): 1 µg/mL (≈ 1.92 µM); MIC [5, 13]: 1 µg/mL (≈ 1.92 µM)
